Earlier results as cited in US20060104952A1, “Genomic barrier to viral disease” (priority 2004, published 2006).

Tested on: genes
Conditions: ref 10 (CoQ10 supplementation, human skeletal muscle)

COC1=C(OC)C(=O)C(C/C=C(\C)CC/C=C(\C)CC/C=C(\C)CC/C=C(\C)CC/C=C(\C)CC/C=C(\C)CC/C=C(\C)CC/C=C(\C)CC/C=C(\C)CCC=C(C)C)=C(C)C1=O [coenzyme Q10]
number of genes whose expression is influenced: at least 115 genes
